# Reference: patent US10669290B2, “Beta-lactamase inhibitors” (priority 2012, dated 2020)
# pIC50: −log10 of the molar value.
# Columns and labels:
# [1] = target: T1, p99 AmpC (Enterobacter cloacae, UniProt P05364); test: β-Lactamase inhibition, p99 AmpC (nitrocefin substrate); type: biochemical; conditions: nitrocefin 100 μM, 486 nm, 15 min preincubation 37° C., PBS pH 7.4; read-out: IC50 AmpC (Class C)
# T1 construct: made in house; host or cells: E. coli BL21 (DE3)
# Procedure: For SHV-5, Kpc-2, p99AmpC and OXA-1 β-lactamases, E. coli BL21 (DE3) bacterial cells carrying expression plasmids (expressed as native untagged proteins) for the individual β-lactamases were grown in 1 L of Superbroth (Teknova Inc. Hollister, Calif.) supplemented with 100 μg/ml kanamycin selection and 1×5052 (0.5% glycerol, 0.05% glucose and 0.2% α-lactose) at 35° C. for 18-20 hours. Cells were harvested by centrifugation (4,000×g, 4° C., 20 min), resuspended in 50 ml of 10 mM HEPES pH 7.5 ( 1/20 of the initial volume). The cells were lysed by sonication (5 pulses of 45 seconds) at 45 W on ice. The lysates were clarified by centrifugation at 10,000×g for 40 minutes at 4° C. Samples were diluted 5-fold in 50 mM sodium acetate pH 5.0, stored overnight at 4° C., after which they were centrifuged at 10,000×g for 30 minutes to clarify, and filtered through 0.45 µm filters. The samples were loaded onto a 5 ml Capto S sepharose cation exchange column (GE Healthcare) pre-equilibrated with 50 mM sodium acetate pH 5.0. The column was washed with 5 column volumes of 50 mM sodium acetate pH 5.0 to wash out unbound protein and a linear gradient of NaCl (0 to 500 mM) was used to elute the protein (over 16 CV) from the column. Fractions were assayed for β-lactamase activity using Centa (Calbiochem, Gibbstown, N.J.) or Nitrocefin (EMD Millipore chemicals, Darmstadt, Germany) as a reporter β-lactamase substrate for activity in the isolated fractions. Active fractions were pooled, concentrated and further purified by gel filtration chromatography on a Superdex 75 prep grade gel filtration column (GE Healthcare, Piscataway, N.J.) pre-equilibrated in 50 mM Hepes pH 7.5, 150 mM NaCl. Active fractions were pooled concentrated, quantitated by BCA protein determination (Thermo Scientific, Rockford, Ill.), dialyzed into PBS and frozen at −80° C. in 20% glycerol until use.
# An equal volume of diluted enzyme stock was added, and the plates were incubated at 37° C. for 15 min. Nitrocefin was used as substrate for p99 AmpC, VIM-2 and OXA-1 and dispensed into each well at a final concentration of 100 μM. Absorbance at 486 nm was immediately monitored for 10 min using a Biotek Powerwave XS2 microplate spectrophotometer using the GEN5 software package (Biotek Instruments, Winooski Vt.). In an analogous fashion, imipenem was used as substrate for Kpc-2 and Cefotaxime was used for SHV-5, while changes in absorbance upon hydrolysis of the β-lactam ring were monitored at 300 nm and 260 nm respectively in UV-transparent 96-well microtiter assay plates. Maximum rates of hydrolysis were compared to those in control wells (without inhibitors), and percentages of enzyme inhibition were calculated for each concentration of inhibitor. The concentration of inhibitor needed to reduce the initial rate of hydrolysis of substrate by 50% (IC50) was calculated as the residual activity of β-lactamase at 486 nm using GraFit version 7 kinetics software package (Erithacus Software, Surrey, UK).
# Using the methodology described above, examples of the current invention were evaluated for their ability to inhibit β-lactamase enzymes from all four Ambler classifications (A through D). […] NT=Not tested.
# [2] = test system: E. coli ESBL4 CTX-M-15; test: Broth microdilution MIC, E. coli ESBL4; type: cell-based; conditions: Escherichia coli, ESBL4CTXM15; fixed ceftazidime 4 μg/mL, CAMHB, 16-20 hours 37° C.; read-out: MIC of exemplary compounds in presence of fixed β-lactams, Fixed CAZ, E. coli ESBL4 CTX-M-15
# How it was run: (§1)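 Potentiation MIC: the lowest test compound concentration inhibiting visible growth in cation-adjusted Mueller Hinton broth containing a β-lactam at a static 4 μg/ml. Compound range was 32–0.25 μg/mL; incubation lasted 16-20 hours at 37° C.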
# [3] = test system: E. cl 144200 p99 AmpC; test: Broth microdilution MIC, E. cloacae 144200; type: cell-based; conditions: Enterobacter cloacae; fixed ceftazidime 4 μg/mL, CAMHB, 16-20 hours 37° C.; read-out: MIC of exemplary compounds in presence of fixed β-lactams, Fixed CAZ, E. cl 144200 p99 AmpC
# How it was run: as §1
# [4] = test system: K.P. 156319 KPC-3; test: Broth microdilution MIC, K. pneumoniae 156319; type: cell-based; conditions: Klebsiella pneumoniae; fixed meropenem 4 μg/mL, CAMHB, 16-20 hours 37° C.; read-out: MIC of exemplary compounds in presence of fixed β-lactams, Fixed Mero, K.P. 156319 KPC-3
# [5] = test system: P. aerug. Ps296 VIM-2; test: Broth microdilution MIC, P. aeruginosa Ps296; type: cell-based; conditions: Pseudomonas aeruginosa; fixed meropenem 4 μg/mL, CAMHB, 16-20 hours 37° C.; read-out: MIC of exemplary compounds in presence of fixed β-lactams, Fixed Mero, P. aerug. Ps296 VIM-2
# How it was run: as §1
# [6] = test system: K.P. A-1797 KPC-2 VIM-4; test: Broth microdilution MIC, K. pneumoniae A-1797; type: cell-based; conditions: Klebsiella pneumoniae; fixed meropenem 4 μg/mL, CAMHB, 16-20 hours 37° C.; read-out: MIC of exemplary compounds in presence of fixed β-lactams, Fixed Mero, K.P. A-1797 KPC-2 VIM-4
# [7] = test system: S. aureus MSSA-7 PC-1; test: Broth microdilution MIC, S. aureus MSSA-7; type: cell-based; conditions: Staphylococcus aureus, fixed piperacillin 4 μg/mL, CAMHB, 16-20 hours 37° C., read-out: MIC of exemplary compounds in presence of fixed β-lactams, Fixed Pip, S. aureus MSSA-7 PC-1
# T1 sequence (P05364 21-381): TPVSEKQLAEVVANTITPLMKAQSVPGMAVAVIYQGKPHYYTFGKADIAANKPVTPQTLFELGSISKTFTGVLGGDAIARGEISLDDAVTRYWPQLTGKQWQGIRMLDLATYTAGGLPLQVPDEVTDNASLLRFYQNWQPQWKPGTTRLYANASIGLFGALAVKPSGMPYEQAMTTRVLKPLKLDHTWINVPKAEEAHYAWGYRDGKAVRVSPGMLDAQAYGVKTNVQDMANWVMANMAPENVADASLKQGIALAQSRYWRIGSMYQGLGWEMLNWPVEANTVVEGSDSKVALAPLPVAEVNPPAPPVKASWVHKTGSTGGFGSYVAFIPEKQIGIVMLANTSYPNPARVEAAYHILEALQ
Compound,pIC50 [1],MIC [2] [µg/mL],MIC [3] [µg/mL],MIC [4] [µg/mL],MIC [5] [µg/mL],MIC [6] [µg/mL],MIC [7] [µg/mL]
"N=C(N)NC1CN(C2CCC(CC(=O)N[C@H]3Cc4cccc(C(=O)O)c4OB3O)CC2)C1 (stereo partly drawn) [Example 41, (3R)-3-(2-(4-(3-guanidinoazetidin-1-yl)cyclohexyl)acetamido)-2-hydroxy-3,4-dihydro-2H-benzo[e][1,2]oxaborinine-8-carboxylic acid]",> 7.00,< 4,< 4,< 4,8 to 32,< 4,< 4
"NC1CN(C2CCC(CC(=O)N[C@H]3Cc4cccc(C(=O)O)c4OB3O)CC2)C1 (stereo partly drawn) [Example 35, (3R)-3-(2-(4-(3-aminoazetidin-1-yl)cyclohexyl)acetamido)-2-hydroxy-3,4-dihydro-2H-benzo[e][1,2]oxaborinine-8-carboxylic acid]",> 7.00,< 4,< 4,< 4,< 4,8 to 32,< 4
"O=C(CC1CCC(O)CC1)N[C@H]1Cc2cccc(C(=O)O)c2OB1O (stereo partly drawn) [Example 47, (3R)-2-hydroxy-3-(2-(4-hydroxycyclohexyl)acetamido)-3,4-dihydro-2H-benzo[e][1,2]oxaborinine-8-carboxylic acid]",> 7.00,< 4,< 4,< 4,8 to 32,> 32,< 4
